Assay results taken from paper PMC8246065 (The EMBO Journal, 2021).
One block for each molecule: values may come before it.

What was measured:
NOD2 = NOD2 (Homo sapiens, UniProt Q9HC29); experiment: Microscale thermophoresis (MST) binding to purified NOD2-GFP; details: read-out: Kd value of ADP alone with NOD2
Protocol: (§1) The lysates were incubated with 2 ml GFP‐Trap agarose at 4°C for 4 h. The agarose was collected with Poly‐Prep columns by gravity flow. […] To remove heat shock proteins, columns were further washed with 50 ml wash buffer III (50 mM Tris–HCl, pH 7.5, 150 mM NaCl, 5 mM MgCl2+, 1 mM ATP). To elute the proteins, the agarose was mixed with 2 ml elution buffer (100 mM Glycine, pH 2.5) for 1 min and the eluted proteins were immediately neutralized with 0.2 ml of 1 M Tris, pH 10.5.

NOD1 [1] = target: T1, NOD1 (Homo sapiens, UniProt Q9Y239); experiment: Microscale thermophoresis (MST) binding to purified NOD1-GFP; details: read-out: Kd value of ADP alone with NOD1
T1 sequence (Q9Y239 1-953): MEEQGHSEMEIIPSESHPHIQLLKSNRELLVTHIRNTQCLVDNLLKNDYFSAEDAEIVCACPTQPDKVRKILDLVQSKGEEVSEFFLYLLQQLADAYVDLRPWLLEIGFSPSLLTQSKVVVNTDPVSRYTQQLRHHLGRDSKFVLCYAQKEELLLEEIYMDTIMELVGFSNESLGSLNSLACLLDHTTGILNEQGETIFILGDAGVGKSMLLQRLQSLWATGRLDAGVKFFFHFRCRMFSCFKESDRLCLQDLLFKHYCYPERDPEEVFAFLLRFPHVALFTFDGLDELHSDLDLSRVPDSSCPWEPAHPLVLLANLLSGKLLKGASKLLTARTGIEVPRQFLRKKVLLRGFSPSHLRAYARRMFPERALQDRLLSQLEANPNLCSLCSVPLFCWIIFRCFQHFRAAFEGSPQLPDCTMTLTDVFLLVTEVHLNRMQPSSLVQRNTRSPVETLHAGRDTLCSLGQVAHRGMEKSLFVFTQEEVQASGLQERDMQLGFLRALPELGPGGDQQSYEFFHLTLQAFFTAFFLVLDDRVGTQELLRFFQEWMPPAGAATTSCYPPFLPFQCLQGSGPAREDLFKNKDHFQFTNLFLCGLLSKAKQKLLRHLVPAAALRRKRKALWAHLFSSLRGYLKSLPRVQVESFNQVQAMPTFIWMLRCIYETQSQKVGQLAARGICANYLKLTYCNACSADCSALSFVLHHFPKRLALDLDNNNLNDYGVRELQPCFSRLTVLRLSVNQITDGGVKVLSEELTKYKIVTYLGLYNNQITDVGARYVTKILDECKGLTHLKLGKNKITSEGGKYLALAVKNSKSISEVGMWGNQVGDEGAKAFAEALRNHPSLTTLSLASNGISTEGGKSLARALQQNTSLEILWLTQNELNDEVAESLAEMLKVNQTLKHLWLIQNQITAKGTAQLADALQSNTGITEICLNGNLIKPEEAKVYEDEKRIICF
Protocol: as §1

NOD1 [2] = test system: NOD1; set-up: method as in Askari et al, 2012; details: quoted by referee; ref Askari et al, 2012; read-out: NOD1 affinity, IC50; cited from earlier work
[3] = test system: human dermal fibroblasts (HDFs); experiment: S1P quantification by ELISA in cell lysates; format: cell-based; details: primary fibroblasts, Fig 3C
Protocol: Human neonatal dermal fibroblasts were grown in DMEM full medium. For each condition, 2x T75 flask cells were required. After 4‐h stimulation with various stressors, cells were washed with PBS and collected in lysis buffer (20 mM PIPES PH7.4, 150 mM NaCl, 1 mM EGTA, 1% v/v Triton X‐100, 1.5 mM MgCl2, 0.1% SDS, 1X PhosSTOP, 1X Protease inhibitor cocktail without EDTA). Protein concentration was measured by BCA assay kit (Thermo Fisher) and diluted with delipidized serum to 1 µg/µl. Then, the diluted samples were added into S1P ELISA plates according to the instructions.

BMDMs and fibroblasts = experiment: Cell death upon stressor treatment; format: cell-based; details: same concentration
Protocol: Cell viability assays were performed with CellTiter 96 AQueous one solution reagent (Promega) according to the manufacturer’s instructions. Cell viability upon various stimulations was normalized to corresponding controls.

THP‐1 cells = experiment: IL6 expression and production in THP-1 cells upon ER stress (de novo vs hydrolysis pathway inhibitors); format: cell-based, human; details: THP-1, tunicamycin 5 µg/ml, Appendix Fig S2
Protocol: The human monocytic cell line THP‐1 was obtained from the American Type Culture Collection (ATCC, TIB‐202) and maintained in RPMI 1640 (Gibco, 31870) with 10% (v:v) heat‐inactivated fetal bovine serum (FBS, Sigma‐Aldrich, F0804), 1 mM sodium pyruvate (Gibco, 11360070), 2 mM L‐glutamine (Gibco, 25030081), 10 mM HEPES buffer (Gibco, 15630080), pH 7.2‐7.5, and 50 µM 2‐mercaptoethanol (Gibco, 31350010). To differentiate THP‐1 into macrophage‐like cells, THP‐1 cells were stimulated with 50 ng/ml phorbol 12‐myristate 13‐acetate (Sigma‐Aldrich, P8139) for 24 h and then incubated with fresh medium for another 48 h. HEK293T WT and HEK293T NOD1/2 dKO cells were generated as described (Dagil et al, 2016). HeLa inducible NOD1‐GFP and NOD2‐GFP cells were generated by co‐transfection of pcDNA5/FRT/TO‐EGFP‐NOD1 or pcDNA5/FRT/TO‐EGFP‐NOD2 (Addgene #131206 and #131207) together with pOG44 in a 9:1 ratio into HeLa FlpIN T‐REx cells (kindly provided by the Hentze Lab, EMBL, Heidelberg) using Lipofectamine 2000 (Thermo Fisher Scientific) and selected with 10 µg/ml blasticidin and 500 µg/ml hygromycin B. HeLa inducible NOD1‐GFP and NOD2‐GFP cells, human neonatal dermal fibroblasts, and HEK293T cells (DSMZ, ACC305) were maintained in complete Dulbecco’s modified Eagle’s medium (DMEM) 4.5 g/l glucose (Gibco, 10938) with 10% (v:v) heat‐inactivated FBS, 1 mM sodium pyruvate, and 2 mM L‐glutamine. To induce NOD1 or NOD2 expression, HeLa NOD1 or NOD2 cells were treated with 0.5 µg/ml or 0.25 µg/ml doxycycline for at least 16 h, respectively. All cells have been checked for mycoplasma contamination regularly. […]
(§2) Total RNA was isolated with TRIzol reagent, as described by the manufacturer (Invitrogen). […] Gene expression was normalized to glyceraldehyde‐3‐phosphate dehydrogenase (GAPDH), and fold changes were calculated against corresponding controls. qRT–PCR data were representative of at least three independent experiments, with at least 2 technical replicates per experiment. […]

[4] = test system: HDFs and HeLa inducible NOD1 or NOD2 cells; experiment: IL6 expression and production in response to various stressors with sphingosine kinase inhibition; format: cell-based, human; details: SPHKi 50 µM (Fig 3D-G)
Protocol: (§3) The human monocytic cell line THP‐1 was obtained from the American Type Culture Collection (ATCC, TIB‐202) and maintained in RPMI 1640 (Gibco, 31870) with 10% (v:v) heat‐inactivated fetal bovine serum (FBS, Sigma‐Aldrich, F0804), 1 mM sodium pyruvate (Gibco, 11360070), 2 mM L‐glutamine (Gibco, 25030081), 10 mM HEPES buffer (Gibco, 15630080), pH 7.2‐7.5, and 50 µM 2‐mercaptoethanol (Gibco, 31350010). To differentiate THP‐1 into macrophage‐like cells, THP‐1 cells were stimulated with 50 ng/ml phorbol 12‐myristate 13‐acetate (Sigma‐Aldrich, P8139) for 24 h and then incubated with fresh medium for another 48 h. HEK293T WT and HEK293T NOD1/2 dKO cells were generated as described (Dagil et al, 2016). […]
as §2

[5] = test system: THP‐1 cells, BMDMs, and human CD14+ monocytes; experiment: IL6 expression and production upon tunicamycin-induced ER stress with sphingolipid pathway inhibitors; format: cell-based; details: inhibitor pretreatment, tunicamycin 5 µg/ml; all types of cells
Protocol: as §3, §2

Chain of NOD2 (Q9HC29 whole entry): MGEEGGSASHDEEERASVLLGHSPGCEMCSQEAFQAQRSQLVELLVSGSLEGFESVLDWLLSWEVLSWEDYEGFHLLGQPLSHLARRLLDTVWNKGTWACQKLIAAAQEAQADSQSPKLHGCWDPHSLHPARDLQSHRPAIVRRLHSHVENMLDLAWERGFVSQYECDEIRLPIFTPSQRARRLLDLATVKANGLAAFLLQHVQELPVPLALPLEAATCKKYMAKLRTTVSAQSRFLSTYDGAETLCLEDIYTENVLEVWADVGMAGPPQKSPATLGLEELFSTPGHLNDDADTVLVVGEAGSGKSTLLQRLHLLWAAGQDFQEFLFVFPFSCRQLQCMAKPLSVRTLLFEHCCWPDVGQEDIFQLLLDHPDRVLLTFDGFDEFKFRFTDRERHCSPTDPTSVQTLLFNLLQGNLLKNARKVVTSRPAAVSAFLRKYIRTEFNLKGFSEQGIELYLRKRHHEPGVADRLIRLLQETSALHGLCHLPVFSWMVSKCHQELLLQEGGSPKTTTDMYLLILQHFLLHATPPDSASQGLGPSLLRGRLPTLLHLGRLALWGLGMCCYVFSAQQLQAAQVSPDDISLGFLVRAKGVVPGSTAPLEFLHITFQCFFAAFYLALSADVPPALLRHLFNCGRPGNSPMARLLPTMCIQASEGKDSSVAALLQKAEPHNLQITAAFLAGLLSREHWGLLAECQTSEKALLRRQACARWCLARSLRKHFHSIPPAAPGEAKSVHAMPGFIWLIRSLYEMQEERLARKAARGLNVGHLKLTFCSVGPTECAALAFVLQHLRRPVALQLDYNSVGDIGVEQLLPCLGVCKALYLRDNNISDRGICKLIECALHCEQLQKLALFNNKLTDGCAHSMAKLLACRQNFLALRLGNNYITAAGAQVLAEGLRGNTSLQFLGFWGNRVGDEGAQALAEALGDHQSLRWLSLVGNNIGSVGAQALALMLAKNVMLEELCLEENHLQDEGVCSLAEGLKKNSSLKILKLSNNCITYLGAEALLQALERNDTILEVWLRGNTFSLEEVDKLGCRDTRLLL

Kd (NOD2): ~150 nM
Kd (NOD1 [1]): ~100 nM
SMILES: Nc1ncnc2c1ncn2[C@@H]1O[C@H](COP(=O)(O)OP(=O)(O)O)[C@@H](O)[C@H]1O [ADP]
IC50 (NOD1 [2]): ~190 nM

SMILES: Nc1ncnc2c1ncn2[C@@H]1O[C@H](COP(=O)(O)OP(=O)(O)OP(=O)(O)O)[C@@H](O)[C@H]1O [ATP]
IC50 (NOD1 [2]): ~15 nM

SMILES: C[C@@H]1C[C@@H]([C@H](O)CC2CC(=O)NC(=O)C2)C(=O)[C@@H](C)C1 [CHX, cycloheximide]
Level of S1P in fibroblasts upon stressor [3]: highest level of S1P in fibroblasts
Cell death in BMDMs compared with fibroblasts (BMDMs and fibroblasts): higher

SMILES: O=C(/C=C/c1ccc(/C=C/C(=O)Nc2ccc(C3=NCCN3)cc2)cc1)Nc1ccc(C2=NCCN2)cc1 [GW4869]
IL6 expression and production upon ER stress (THP‐1 cells): not

SMILES: N[C@H]1CON=C1O [L‐cycloserine]
IL6 expression and production upon ER stress (THP‐1 cells): not

SMILES: Oc1ccc(Nc2nc(-c3ccc(Cl)cc3)cs2)cc1 [SKI‐II]
IL6 expression and production in response to various stressors [4]: markedly diminished
IL6 expression and production upon tunicamycin-induced ER stress [5]: abolished

SMILES: COc1ccc(/C=C/C(=O)c2c(-c3ccccc3)c3ccccc3[nH]c2=O)cc1 [ceranib‐2]
IL6 expression and production upon tunicamycin-induced ER stress [5]: abolished

SMILES: CN(C)CCCN1c2ccccc2CCc2ccccc21 [imipramine]
IL6 expression and production upon ER stress (THP‐1 cells): abrogated
